Reference: patent publication US6413937B1, “Combinations for use in increasing the potency of a substrate for multidrug resistance related protein” (Dublin City University and Enterprise Ireland, priority 1996, dated 2002)

Legend:
OAW42-SR cell line = test: miniaturised in vitro colorimetric cell survival assay, LRP overexpressing OAW42-SR; type: cell-based, human; settings: alone or + Adriamycin 147 ng/ml
Description: All the results presented in this Example for the DLKP, A549 and OAW42-SR cell lines were derived using the same miniaturised in vitro calorimetric assay system. On Day 1 of the assay 1000 cells/well/100 μl were plated into 96-well plates. Cells were allowed to attach overnight and cell viability was visually assessed. On Day 2 the two drugs (i.e. NSAID plus chemotherapeutic drug) to be analysed were added onto the cells. The individual drugs were added separately in 50 μl quantities (4× stocks, to take into account the dilution effect of having 200 μl final volume in each well). The drugs were left on the cells for five further days (Day 7) and cell number was determined using the acid phosphatase end-point assay which uses p-nitrophenol phosphate as substrate (Martin, A. and Clynes, M. (1991) In Vitro Dev. Biol., 27A, 183-184). On Day 7 the culture medium was removed from the cells and they were washed once with phosphate buffered saline (PBS). […] After the incubation period 50 μl of 1N NaOH was added to each well to develop the colour. The plates were then read at 405 nm (reference 620 nm) on an ELISA plate-reader. […] All results are the cell survival means ±S.D. from a minimum of three experiments.

DLKP-7 cells = test: adriamycin efflux from loaded cells, HPLC; type: cell-based
Description: DLKP-7 cells were seeded into 75 cm^2 flasks at 0.5×10^6 cells/10 ml ATCC medium. The cells were left for 2 days, the ATCC medium was removed and fresh medium containing adriamycin (0.5 μg/ml) was added. Following a 2 hour incubation this medium was removed, the flasks were washed twice with PBS, 10 ml ATCC medium or ATCC medium containing the test NSAID was added, and the cells were incubated for a further 4 hr. The cells were trypsinised and the pellet was frozen at −20° C. Duplicate flasks for each time point were prepared. The NSAIDs used were indomethacin 10 μg/ml and piroxicam 20 μg/ml.
The amount of adriamycin in the cells was quantified using liquid-liquid extraction and reverse-phase HPLC analysis. The frozen cell pellets were thawed and resuspended in […] of water/100 μl of 33% silver nitrate and mixed for 5 min. 300 μl of methanol, containing 1.5 μg of daunorubicin as an internal standard (IS), and 1.3 ml of acetonitrile were then added and the tubes mixed for a further 5 min. The mixture was transferred to glass tubes and kept at 4° C. for 1 hr. The tubes were then centrifuged at 1000 g for 15 min. to pellet any solid material. 1.1 ml of the supernatant was removed to HPLC autosampler vials (Labquip, Dublin, Ireland). The solvent was evaporated off at room temperature under a stream of nitrogen gas.
The extract was resuspended in 50 μl of mobile phase 1 (MP1): 32 ml of 0.1 M phosphoric acid mixed with 244 ml of ultrapure water, pH: 2.3 (adjusted upwards with a few drops of 1N potassium hydroxide) to which 124 ml of acetonitrile was added and the final mixture was degassed in a sonicating bath for 5 min. The second mobile phase (MP2) consisted of acetonitrile. The resuspended sample (20 μl) was automatically injected into the HPLC system. The HPLC system comprised a Beckman System Gold 507 autosampler, 125 pump and 166 detector. The MP was pumped through a C18 reversed-phase Prodigy 5 μm particle size ODS-3 column (Phenomenex, Macclesfield, England) (dimensions 150×4.6mm) and absorbance was measured at 253 nm. For the first 14 min. of the chromatographic run MP 1 was pumped at 0.5 ml/min. From 14 min. to 20 min. the column was switched to MP 2. At 20 min. the column was switched back to MP 1 and the flow rate increased to 1 ml/min. At 30 min. the flow rate was brought back to 0.5 ml/min. The run continued for a further 5 min. giving a total run time of 35 min. The amount of adriamycin present was quantified by measuring its peak area and the peak area of the IS. The peak area of the adriamycin was divided by the area of the IS peak and the ratio plotted against a concentration series for spiked adriamycin samples.

[1] = system: murine and human cultured tumour cells; settings: non-toxic concentrations of indomethacin; in vitro; cited from earlier work
HL-60ADR cells = test: etoposide-induced apoptosis (nuclear fragmentation), HL-60ADR; type: cell-based; settings: HL-60ADR (resistant); etoposide alone or co-treated with sulindac; FIG. 1
Description: An experiment was carried out to determine the effect of the NSAID sulindac on etoposide-induced apoptosis in two cell lines, namely HL-60S and HL-60ADR. These cell lines were donated by Dr. Melvin Center, Kansas State University, Manhattan Kans. 66506, U.S.A. For the HL-60S and ADR cell lines the percentage of apoptotic cells within the cell population, following drug exposure, was used to quantify toxicity. Cells were plated in fresh medium at a concentration of 10^6 cells/ml in a 24-well plate (Greiner) and drugs were then added to the wells. A 200 μl sample from each well was taken after 4 and 8 hrs. Samples were cytospun for 2 min at 500 rpm using a Shandon Cytofuge3. After air-drying the cytospins were stained using a Romanowsky staining kit, Rappi-Diff II (Langanbach), dried and mounted in DPX (BDH). Slides were studied on an Optiphot microscope (Nikon) fitted with a 40× objective, and visualised on a monitor via a Mitsubishi CCD-100E colour CCD-camera and a 0.6× relay lens. Nuclear fragmentation was used as a morphological marker for apoptosis and a minimum of 200 cells were assessed in at least three different microscopic fields. Results were expressed as the percentage of apoptotic cells within the population. Each experiment was repeated in duplicate.

COR L23 R (MRP+) cells = settings: doxorubicin 10 mg/ml alone or with sulindac 20 mg/ml, 1, 2, 4 h, FIG. 3
Description: (§1) 10^6 COR L23 P (parental non-MRP resistant, MRP−) or COR L23 R (MRP resistant, MRP+) cells were added to 75 cm^3 vented flasks containing HEPES buffered Rosemount Park Memorial Institute (RPMI) medium and maintained at 37° C. in a 5% CO2 atmosphere. […] After three days of growth, doxorubicin (final concentration 10 mg/ml), sulindac (final concentration 20 mg/ml) or doxorubicin and sulindac were added to individual flasks. Samples were taken after 1, 2 and 4 h. and assayed for drug content.
(§2) The contents of each flask were washed twice with 5 ml of PBS and stored at −70° C. The flasks were thawed and 100 μl of water and 100 μl of 33% silver nitrate added to each and mixed for 5 min. […]
(§3) The extract was resuspended in 50 μl of methanol in the sample vial and loaded into the HPLC autosampler. […] The mobile phases were pumped through a C18 reversed-phase Ultrasphere XL (Beckman) HPLC column (4.6×70 mm) with absorbance measured at 253 nm. […] The amount of doxorubicin and sulindac present was quantified by measuring the peak height of these drugs and the internal standard. […] The concentration of doxorubicin in the samples was calculated from the) nd development standard line using the peak height ratio. The sulindac concentrations were calculated by the same method.

[2] = system: COR L23 P (non-MRP) cells; settings: doxorubicin 10 mg/ml alone or with sulindac 20 mg/ml, 1, 2, 4 h, FIG. 4
Description: as §1, §2, §3

Row | Structure (SMILES) | % cell survival (OAW42-SR cell line; vi) Indomethacin 0.625 μg/ml) | % cell survival (OAW42-SR cell line; vi) Indomethacin 1.25 μg/ml) | % cell survival (OAW42-SR cell line; vi) Indomethacin 2.5 μg/ml) | % Adriamycin content at 0 h (DLKP-7 cells; cells loaded with adriamycin 0.5 μg/ml 2 h, indomethacin 10 μg/ml, piroxicam 20 μg/ml, 0 h) | % Adriamycin content at 4 h (DLKP-7 cells; cells loaded with adriamycin 0.5 μg/ml 2 h, indomethacin 10 μg/ml, piroxicam 20 μg/ml, 4 h) | level of adriamycin within the treated cells (DLKP-7 cells; during the 4 hours of the experiment) | enhancement of VP-16 sensitivity [1] | etoposide-induced apoptosis, percentage of apoptotic cells (HL-60ADR cells) | doxorubicin level in the cells (COR L23 R (MRP+) cells) | doxorubicin level in the cells [2]
1 | COc1ccc2c(c1)c(CC(=O)O)c(C)n2C(=O)c1ccc(Cl)cc1 [Indomethacin, indomethacin] | 99.26 ± 3.7% | 97.67 ± 1.3% | 95.60 ± 3.3% | 100% | 109 ± 4% | remained constant during the 4 hours of the experiment | enhanced the VP-16 sensitivity of a variety of cancer cell lines | – | – | –
2 | CC1=C(CC(=O)O)c2cc(F)ccc2/C1=C\c1ccc([S+](C)[O-])cc1 (stereo not shown) [Sulindac, sulindac] | – | – | – | – | – | – | – | a significant increase in the amount of cells dying by apoptosis is observed | the doxorubicin level in the cells is increased to near that found in the MRP—cells | regardless of the co-treatment with sulindac
